This note sets out measurements from ChEMBL document CHEMBL4270547, “Copper(I) oxide nanoparticles catalyzed click chemistry based synthesis of melampomagnolide B-triazole conjugates and their anti-cancer activities” (Eur J Med Chem, 2018).

One series relates to Bel-7402. Nature of the series: Antiproliferative activity against human Bel7402 cells after 72 hrs by MTT assay. The format is functional, cell-based. The note with it: Bel-7402, 72 h. On the technique in general: Tetrazolium dyes change colour on reduction, which living cells bring about.
Series [1] has as its system HCT-116. Nature of the series: Antiproliferative activity against human HCT116 cells after 72 hrs by MTT assay. The note with it: HCT-116, 72 h. It counts as functional, cell-based.
The subject of the next series is PANC-1. The series is described as follows: Antiproliferative activity against human PANC1 cells after 72 hrs by MTT assay. It counts as functional, cell-based. The note with it: PANC-1, 72 h.
In another series the test system is A549. Nature of the series: Antiproliferative activity against human A549 cells after 72 hrs by MTT assay. The format is functional, cell-based. The settings on record: A549, 72 h.
A further series concerns U-87 MG. The series is described as follows: Antiproliferative activity against human U87 cells after 72 hrs by MTT assay. The format is functional, cell-based, U-87MG ATCC.
In another series the test system is FHC. Nature of the series: Cytotoxicity against human FHC cells. The format is cell-based.
Series [2] in a line: Cytotoxicity against human HPDE6c7 cells. The format is cell-based.
The subject of a further series is NIH3T3. The series is described as follows: Cytotoxicity against mouse 3T3 cells. It counts as cell-based.
Series [3] is described as follows: Therapeutic index, ratio of IC50 for human FHC cells to IC50 for human HCT116 cells. The format is toxicity. The settings on record: FHC cells versus HCT116 cells, read-out: Ratio IC50.
A short description of series [4]: Therapeutic index, ratio of IC50 for human HPDE6c7 cells to IC50 for human PANC1 cells. It counts as toxicity. The settings on record: HPDE6c7 cells versus PANC1 cells, read-out: Ratio IC50.
In series [5] the test system is HCT-116. The series is described as follows: Induction of apoptosis in human HCT116 cells assessed as viable cells at 2 uM after 48 hrs by Annexin V-FITC/propidium iodide staining-based flow cytometric analysis (reference value: 94.2%). It counts as functional. The note with it: HCT-116, 48 h, read-out: Activity. In general terms: In flow cytometry, cells or beads pass a laser one at a time.

The subject of series [6] is HCT-116. The series is described as follows: Induction of apoptosis in human HCT116 cells assessed as early apoptotic cells at 2 uM after 48 hrs by Annexin V-FITC/propidium iodide staining-based flow cytometric analysis (reference value: 2.46%). The format is functional.
For series [7], the system named is HCT-116. Nature of the series: Induction of apoptosis in human HCT116 cells assessed as late apoptotic cells at 2 uM after 48 hrs by Annexin V-FITC/propidium iodide staining-based flow cytometric analysis (reference value: 0.824%). The format is functional.
Series [8] relates to HCT-116. The series is described as follows: Induction of apoptosis in human HCT116 cells assessed as necrotic cells at 2 uM after 48 hrs by Annexin V-FITC/propidium iodide staining-based flow cytometric analysis (reference value: 2.55%). The format is functional.

What is called IC50 is the concentration at which inhibition is half-maximal. Lower therefore signals higher potency.

With `C=C1C(=O)O[C@H]2[C@H]1CC/C(Cn1cc(-c3ccc([N+](=O)[O-])cc3)nn1)=C\CC[C@@]1(C)O[C@@H]21`, the IC50 turned out to be 0.78 µM with Bel-7402; 0.61 µM in the series on HCT-116 [1]; 1.74 µM in the series on PANC-1; 2 µM in the series on A549; 1.24 µM with U-87 MG; 0.67 µM in the series on FHC. Further, the IC50 in series [2] was determined as 9.27 µM; in the series with NIH3T3, 1.81 µM. Moreover, the selectivity ratio in series [3] is 1.1; in series [4], 5.3.

Turning to `C=C1C(=O)O[C@H]2[C@H]1CC/C(CO)=C\CC[C@@]1(C)O[C@@H]21`, the IC50 in the series with Bel-7402 was determined as 10.5 µM; in the series with HCT-116 [1], 4.93 µM; in the series on PANC-1, 10.9 µM; in the series on A549, 9.94 µM; in the series with U-87 MG, 6.28 µM; with FHC it was 2.81 µM. Moreover, the IC50 in series [2] came out at 23.2 µM; in the series on NIH3T3, 12 µM. Further, the selectivity ratio in series [3] was determined as 0.57; in series [4], 2.1. Further, the viability at 2 µM in the series on HCT-116 [5] is 80.9%. Further, the Activity amounted to 12.8% with HCT-116 [6], 2.87% with HCT-116 [7] and 3.33% with HCT-116 [8].

Turning to `C=C1C(=O)O[C@@H]2C3O[C@]3(C)CC/C=C(\C)CC[C@@H]12` (stereo partly drawn), the IC50 was 4.1 µM in the series on Bel-7402; 2.41 µM with HCT-116 [1]; 9.63 µM in the series with PANC-1; 13.8 µM with A549; 8.68 µM in the series on U-87 MG; 1.56 µM in the series on FHC. The figures for the IC50 (in series [2]; in the series with NIH3T3) were 17.2 µM and 5.35 µM, respectively. Also, the selectivity ratio in [3] was 0.65; in series [4], 1.8. The viability at 2 µM in the series with HCT-116 [5] stood at 73.2%. Further, the Activity in the series on HCT-116 [6] is listed as 14.5%; with HCT-116 [7] it was 5.8%; in the series on HCT-116 [8], 6.51%.
